Tests used:
[1] = Stability when exposed to ultra violet (UV) light; format: physicochemical; conditions: phosphoric/citrate buffer at pH 3.0, ambient temperature; data not shown
Text: UV instability can be accelerated by certain flavor systems. UV-absorbing packaging material, colorants and/or antioxidants can protect against UV light-induced flavor interactions in monatin-containing beverages.

[2] = Monatin dose response, sweetness estimation in pH 3.2 model soft drink system; format: in vivo; conditions: for SEV: pH 3.2 model soft drink system
Experimental: Solutions of monatin (mixture of approximately 96% of the 2R,4R/2S, 4S enantiometric pair and 4% of the 2R,4S/2S,4R enantiometric pair-also called “racemic mix” of monatin”) at 15, 30, 45, 60, 75 and 90 ppm were prepared in a pH 3.2 model soft drink system that contained 0.14% (w/v) citric acid and 0.04% (w/v) sodium citrate. The sweetness of monatin relative to sucrose was determined using the sweetness estimation methodology described below. All assessments were carried out in duplicate by a panel (n=6-8) of trained panelists experienced in this sweetness determination procedure. All samples were served at a temperature of 20° C. ±1° C.
Monatin solutions were coded and presented individually to panelists, in random order. Sucrose reference standards, ranging from 2.0-11.0% (w/v) sucrose, increasing in steps of 0.5% (w/v) sucrose also were provided. Panelists were asked to estimate sweetness by comparing the sweetness of the test solution to the sucrose standards. This was carried out by taking 3 sips of the test solution, followed by a sip of water, followed by 3 sips of sucrose standard followed by a sip of water, etc. Panelists were encouraged to estimate the sweetness to one decimal place, e.g., 6.8, 8.5. A five minute rest period was imposed between evaluating the test solutions. Panelists also were asked to rinse well and eat a cracker to reduce any potential carry over effects.

For `NC(CC(O)(Cc1c[nH]c2ccccc12)C(=O)O)C(=O)O` (racemic) [Monatin, 2-hydroxy-2-(indol-3-ylmethyl)-4-aminoglutaric acid], the “stability when exposed to ultra violet (UV) light” value [1] was “similarly stable or slightly more stable than aspartame”, the SEV ([2]; Monatin Conc. 15 ppm) was 3.6 %; w/v and the SEV ([2]; Monatin Conc. 30 ppm) was 4.9 %; w/v. The SEV ([2]; Monatin Conc. 45 ppm) was 7.1 %; w/v, the SEV ([2]; Monatin Conc. 60 ppm) was 8.5 %; w/v and the SEV ([2]; Monatin Conc. 75 ppm) was 9.8 %; w/v. The SEV ([2]; Monatin Conc. 90 ppm) was 10.5 %; w/v and the relative sweetness intensity ([2]; at 10.0% (w/v) SEV, blend of monatin stereoisomers (racemic mix)) was 1250 × sweeter than sucrose.
